Measurements: US20230117034A1, “PYRAZOLOTRIAZINES” (Bayer Aktiengesellschaft, priority 2019, published 2023)

Legend:
CDK12/CycK = CDK12/CycK (Homo sapiens, UniProt Q9NYV4); assay: CDK12/CycK high ATP kinase assay (TR-FRET, 2 mM ATP); assay type: biochemical; conditions: 2 mM ATP (high ATP); median; read-out: CDK12/CyclinK, 2 mM ATP (high ATP), IC50-[mol/l] (median)
Experimental: In the context of the present invention, the term “IC50 CDK12 hATP” refers to the IC50 values obtained according to the assay described in this section (2.2) herein below, i.e. the IC50 values for the inhibition of CDK12 at high (2 mM) ATP.
CDK12/CycK-inhibitory activity of compounds of the present invention at 2 millimol/L adenosine-tri-phosphate (ATP) was quantified employing the TR-FRET (TR-FRET=Time Resolved Fluorescence Energy Transfer) based CDK12/CycK activity inhibition assay as described in the following paragraphs.
A complex of human recombinant CDK12 and human recombinant CycK (both N-terminally His-tagged, expression and purification as described above) was used as enzyme. As substrate for the kinase reaction biotinylated peptide biotin-Ahx-KFELLPTPPLSPSRRSGL (C-terminus in amid form) was used which can be purchased e.g. form the company Biosyntan (Berlin-Buch, Germany).
For the assay 50 nanoL of a 100 fold concentrated solution of the test compound in DMSO was pipetted into either a black low volume 384 well microtiter plate or a black 1536 well microtiter plate (both Greiner Bio-One, Frickenhausen, Germany), 2 microL of a solution of CDK12/CycK in aqueous assay buffer [25 millimol/L HEPES pH 7.5, 20 millimol/L MgCl2, 5 millimol/L β-glycerophosphate, 2 millimol/L EGTA, 1.0 millimol/L dithiothreitol, 0.01% (v/v) Nonidet-P40 (Sigma), 0.01% (w/v) bovine serum albumin] were added and the mixture was incubated for 15 min at 22° C. to allow pre-binding of the test compounds to the enzyme before the start of the kinase reaction. Then the kinase reaction was started by the addition of 3 microL of a solution ATP (3.33 millimol/L=>final conc. in the 5 microL assay volume is 2 millimol/L) and substrate (1.67 micromol/L=>final conc. in the 5 microL assay volume is 1 micromol/L) in assay buffer and the resulting mixture was incubated for a reaction time of 60 min at 22° C. The concentration of CDK12/CycK was adjusted depending of the activity of the enzyme lot and was chosen appropriate to have the assay in the linear range, typical concentrations were about 0.75 nanomol/L. The reaction was stopped by the addition of 3 microL of a solution of TR-FRET detection reagents (125 nanomol/L streptavidine-XL665 [Cisbio Bioassays, Codolet, France] and 0.67 nanomol/L anti-Phospho-c-Myc (Ser 62) (E1J4K)-antibody from Cell Signalling [#13748] and 2 nanomol/L LANCE EU-W1024 labeled anti-rabbit IgG antibody [Perkin-Elmer, product no. 0083]) in an aqueous EDTA-solution (133 millimol/L EDTA, 0.27% (w/v) bovine serum albumin in 66.7 millimol/L HEPES pH 7.5).
(§1) The resulting mixture was incubated 1 h at 22° C. to allow the formation of complex between the phosphorylated biotinylated peptide and the detection reagents. Subsequently the amount of phosphorylated substrate was evaluated by measurement of the resonance energy transfer from the Eu-chelate to the streptavidine-XL. Therefore, the fluorescence emissions at 620 nm and 665 nm after excitation at 350 nm was measured in a TR-FRET reader, e.g. a Pherastar FS (BMG Labtechnologies, Offenburg, Germany) or a Viewlux (Perkin-Elmer). The ratio of the emissions at 665 nm and at […] was taken as the measure for the amount of phosphorylated substrate. The data were normalised (enzyme reaction without inhibitor=0% inhibition, all other assay components but no enzyme=100% inhibition).

CDK9/CycT1 = biological target: T1, CDK9/CycT1 (Homo sapiens, UniProt P50750); assay: CDK9/CycT1 high ATP kinase assay (TR-FRET, 2 mM ATP); assay type: biochemical; conditions: 2 mM ATP (high ATP); median; read-out: CDK9/CyclinT1, 2 mM ATP (high ATP), IC50 (median)
T1 construct: Recombinant full-length His-tagged human CDK9 and CycT1; purchased Life Technologies PV4131; host or cells: insect cells
T1 sequence (P50750 whole entry): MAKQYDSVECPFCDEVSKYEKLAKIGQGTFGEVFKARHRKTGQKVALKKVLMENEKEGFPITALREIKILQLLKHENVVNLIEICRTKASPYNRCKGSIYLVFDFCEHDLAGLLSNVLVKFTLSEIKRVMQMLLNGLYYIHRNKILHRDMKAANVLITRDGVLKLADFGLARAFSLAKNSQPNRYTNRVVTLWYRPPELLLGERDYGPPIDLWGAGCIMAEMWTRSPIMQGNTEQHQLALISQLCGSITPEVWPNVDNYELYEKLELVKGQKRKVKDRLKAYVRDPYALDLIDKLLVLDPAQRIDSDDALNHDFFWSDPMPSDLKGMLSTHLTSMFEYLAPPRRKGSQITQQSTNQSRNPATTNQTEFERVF
T1 sequence (O60563 whole entry partner): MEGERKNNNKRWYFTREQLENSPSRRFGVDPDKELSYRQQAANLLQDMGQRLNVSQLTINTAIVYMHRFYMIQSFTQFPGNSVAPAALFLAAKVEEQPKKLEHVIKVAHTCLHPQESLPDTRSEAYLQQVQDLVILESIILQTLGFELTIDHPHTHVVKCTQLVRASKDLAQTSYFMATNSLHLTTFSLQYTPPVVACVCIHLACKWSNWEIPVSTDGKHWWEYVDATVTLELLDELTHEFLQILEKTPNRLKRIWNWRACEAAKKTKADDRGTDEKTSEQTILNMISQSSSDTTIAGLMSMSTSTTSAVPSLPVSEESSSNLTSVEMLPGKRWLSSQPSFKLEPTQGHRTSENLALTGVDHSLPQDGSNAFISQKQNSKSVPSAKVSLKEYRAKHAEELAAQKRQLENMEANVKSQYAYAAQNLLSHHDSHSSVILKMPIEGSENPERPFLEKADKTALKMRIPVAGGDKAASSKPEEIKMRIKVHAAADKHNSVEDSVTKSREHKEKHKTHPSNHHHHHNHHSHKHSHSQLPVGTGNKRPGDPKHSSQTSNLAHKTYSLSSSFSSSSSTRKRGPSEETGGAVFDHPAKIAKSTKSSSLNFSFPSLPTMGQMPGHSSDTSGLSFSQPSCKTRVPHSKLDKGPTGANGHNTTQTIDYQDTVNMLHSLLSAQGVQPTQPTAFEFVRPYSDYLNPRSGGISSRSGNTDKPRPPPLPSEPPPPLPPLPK
Experimental: CDK9/CycT1-inhibitory activity of compounds of the present invention at a high ATP concentration after preincubation of enzyme and test compounds was quantified employing the CDK9/CycT1 TR-FRET assay as described in the following paragraphs.
Recombinant full-length His-tagged human CDK9 and CycT1, expressed in insect cells and purified by Ni-NTA affinity chromatography, were purchased from Life Technologies (Cat. No PV4131). As substrate for the kinase reaction biotinylated peptide biotin-Ttds-[…] (C-terminus in amide form) was used which can be purchased e.g. form the company JERINI peptide technologies (Berlin, Germany).
For the assay 50 nanoL of a 100 fold concentrated solution of the test compound in DMSO was pipetted into either a black low volume 384 well microtiter plate or a black 1536 well microtiter plate (both Greiner Bio-One, Frickenhausen, Germany), 2 microL of a solution of CDK9/CycT1 in aqueous assay buffer [50 millimol/L Tris/HCl pH 8.0, 10 millimol/L MgCl2, 1.0 millimol/L dithiothreitol, 0.1 millimol/L sodium ortho-vanadate, 0.01% (v/v) Nonidet-P40 (Sigma)] were added and the mixture was incubated for 15 min at 22° C. to allow pre-binding of the test compounds to the enzyme before the start of the kinase reaction. […] The concentration of CDK9/CycT1 was adjusted depending of the activity of the enzyme lot and was chosen appropriate to have the assay in the linear range, typical concentrations were in the range of 0.5 microg/ml.
as §1, with “Pherastar” for “Pherastar FS”, “substrate.” for “substrate. The data were normalised (enzyme reaction without inhibitor=0% inhibition, all other assay components but no enzyme=100% inhibition).”

CDK12/CycK, sequence (Q9NYV4 with tags, fused parts or gaps): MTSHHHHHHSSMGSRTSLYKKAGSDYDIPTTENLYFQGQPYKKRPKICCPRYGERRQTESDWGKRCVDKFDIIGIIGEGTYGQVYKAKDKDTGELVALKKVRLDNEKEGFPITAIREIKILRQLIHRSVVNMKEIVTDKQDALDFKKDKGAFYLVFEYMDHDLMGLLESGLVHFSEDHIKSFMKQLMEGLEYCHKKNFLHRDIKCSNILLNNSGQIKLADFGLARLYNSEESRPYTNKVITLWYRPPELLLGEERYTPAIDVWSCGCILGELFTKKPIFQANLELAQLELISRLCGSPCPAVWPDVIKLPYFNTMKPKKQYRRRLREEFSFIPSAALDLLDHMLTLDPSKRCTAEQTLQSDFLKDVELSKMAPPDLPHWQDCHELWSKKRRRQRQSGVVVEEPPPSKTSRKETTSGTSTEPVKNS
CDK12/CycK, sequence (O75909 1-300 partner limits assumed): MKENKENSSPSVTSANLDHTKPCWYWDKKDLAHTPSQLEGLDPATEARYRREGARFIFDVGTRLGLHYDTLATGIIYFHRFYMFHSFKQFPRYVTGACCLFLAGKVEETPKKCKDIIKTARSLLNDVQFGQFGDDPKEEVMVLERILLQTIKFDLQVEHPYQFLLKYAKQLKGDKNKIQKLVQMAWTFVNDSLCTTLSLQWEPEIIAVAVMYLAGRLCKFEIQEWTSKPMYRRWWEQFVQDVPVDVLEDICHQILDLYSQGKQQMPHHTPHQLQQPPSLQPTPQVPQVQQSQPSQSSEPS

[O-][S+]1CCN(c2nc(NCc3nc4ccccc4[nH]3)n3ncc(Br)c3n2)CC1 [Example 144, 4-(4-{[(1H-benzimidazol-2-yl)methyl]amino}-8-bromopyrazolo[1,5-a][1,3,5]triazin-2-yl)-1lambda^4-thiomorpholin-1-one]
IC50 (CDK12/CycK): 3.72 µM
IC50 (CDK9/CycT1): > 20 µM

Cc1ccc2[nH]c(CNc3nc(N4CCN(C)CC4)nc4c(Br)cnn34)nc2c1 [Example 158, 8-bromo-N-[(5-methyl-1H-benzimidazol-2-yl)methyl]-2-(4-methylpiperazin-1-yl)pyrazolo[1,5-a][1,3,5]triazin-4-amine]
IC50 (CDK12/CycK): 4.46 µM
IC50 (CDK9/CycT1): > 20 µM

Clc1cccc(-c2cnn3c(NCc4nc5ccccc5[nH]4)nc(N4CCOCC4)nc23)c1 [Example 107, N-[(1H-benzimidazol-2-yl)methyl]-8-(3-chlorophenyl)-2-(morpholin-4-yl)pyrazolo[1,5-a][1,3,5]triazin-4-amine]
IC50 (CDK12/CycK): > 20 µM
IC50 (CDK9/CycT1): > 20 µM

C[C@@H]1CN(c2nc(NCc3nc4ccccc4[nH]3)n3ncc(Br)c3n2)CCN1C [Example 135, N-[(1H-benzimidazol-2-yl)methyl]-8-bromo-2-[(3R)-3,4-dimethylpiperazin-1-yl]pyrazolo[1,5-a][1,3,5]triazin-4-amine]
IC50 (CDK12/CycK): 14.5 µM
IC50 (CDK9/CycT1): > 20 µM

COc1ccc2[nH]c(CNc3nc(N4CCOCC4)nc4c(Br)cnn34)nc2c1 [Example 160, 8-bromo-N-[(5-methoxy-1H-benzimidazol-2-yl)methyl]-2-(morpholin-4-yl)pyrazolo[1,5-a][1,3,5]triazin-4-amine]
IC50 (CDK12/CycK): 1.24 µM
IC50 (CDK9/CycT1): > 20 µM

CN1CCN(c2nc(NCc3nc4ccccc4[nH]3)n3ncc(Br)c3n2)C(CO)C1 (centres unmarked) [Example 155, [1-[4-(1H-benzimidazol-2-ylmethylamino)-8-bromo-pyrazolo[1,5-a][1,3,5]triazin-2-yl]-4-methyl-piperazin-2-yl]methanol]
IC50 (CDK12/CycK): 3.74 µM
IC50 (CDK9/CycT1): > 20 µM

N=S1(=O)CCN(c2nc(NCc3nc4ccccc4[nH]3)n3ncc(Br)c3n2)CC1 [Example 145, 4-(4-{[(1H-benzimidazol-2-yl)methyl]amino}-8-bromopyrazolo[1,5-a][1,3,5]triazin-2-yl)-1-imino-1lambda^6-thiomorpholin-1-one]
IC50 (CDK12/CycK): 12.6 µM
IC50 (CDK9/CycT1): > 20 µM

CC(C)c1cnn2c(NCc3nc4ccccc4[nH]3)nc(N3CCCOCC3)nc12 [Example 8, N-[(1H-benzimidazol-2-yl)methyl]-2-(1,4-oxazepan-4-yl)-8-(propan-2-yl)pyrazolo[1,5-a][1,3,5]triazin-4-amine]
IC50 (CDK12/CycK): > 19.8 µM
IC50 (CDK9/CycT1): > 20 µM

Cc1ccc(-c2nnc(CNc3nc(N4CCOCC4)nc4c(Br)cnn34)[nH]2)cc1F [Example 98, 8-bromo-N-{[5-(3-fluoro-4-methylphenyl)-4H-1,2,4-triazol-3-yl]methyl}-2-(morpholin-4-yl)pyrazolo[1,5-a][1,3,5]triazin-4-amine]
IC50 (CDK12/CycK): 1.08 µM
IC50 (CDK9/CycT1): 0.953 µM

CN1CCN(c2nc(NCc3nc4cc(F)ccc4[nH]3)n3ncc(Br)c3n2)CC1 [Example 134, 8-bromo-N-[(5-fluoro-1H-benzimidazol-2-yl)methyl]-2-(4-methylpiperazin-1-yl)pyrazolo[1,5-a][1,3,5]triazin-4-amine]
IC50 (CDK12/CycK): > 17.7 µM
IC50 (CDK9/CycT1): > 20 µM

CC(=O)NCCCc1cccc2[nH]c(CNc3nc(N4CCOCC4)nc4c(Br)cnn34)nc12.O=CO [Example 115, formic acid-N-{3-[2-({[8-bromo-2-(morpholin-4-yl)pyrazolo[1,5-a][1,3,5]triazin-4-yl]amino}methyl)-1H-benzimidazol-4-yl]propyl}acetamide (1/1)]
IC50 (CDK12/CycK): 11.6 µM
IC50 (CDK9/CycT1): > 20 µM

c1ccc2[nH]c(CNc3nc(N4CCOCC4)nc4c(-c5ccncc5)cnn34)nc2c1 [Example 111, N-[(1H-benzimidazol-2-yl)methyl]-2-(morpholin-4-yl)-8-(pyridin-4-yl)pyrazolo[1,5-a][1,3,5]triazin-4-amine hydrogen chloride (1/1)]
IC50 (CDK12/CycK): > 1.63 µM
IC50 (CDK9/CycT1): > 1.63 µM

Brc1cnn2c(NCc3nc4ccccc4[nH]3)nc(N3CCC3)nc12 [Example 143, 2-(azetidin-1-yl)-N-[(1H-benzimidazol-2-yl)methyl]-8-bromopyrazolo[1,5-a][1,3,5]triazin-4-amine]
IC50 (CDK12/CycK): > 20 µM
IC50 (CDK9/CycT1): > 20 µM

Cc1cccc2[nH]c(CNc3nc(N4CCOCC4)nc4c(Br)cnn34)nc12 [Example 150, 8-bromo-N-[(4-methyl-1H-benzimidazol-2-yl)methyl]-2-(morpholin-4-yl)pyrazolo[1,5-a][1,3,5]triazin-4-amine]
IC50 (CDK12/CycK): 2.66 µM
IC50 (CDK9/CycT1): > 20 µM

Brc1cnn2c(NCc3nnc(-c4ccccc4)[nH]3)nc(N3CCNCC3)nc12.O=CO [Example 119, 8-bromo-N-[(5-phenyl-4H-1,2,4-triazol-3-yl)methyl]-2-piperazin-1-yl-pyrazolo[1,5-a][1,3,5]triazin-4-amine formate]
IC50 (CDK12/CycK): 6.62 µM
IC50 (CDK9/CycT1): 6.21 µM

CN1CCN(c2nc(NCc3nc4c(F)c(F)ccc4[nH]3)n3ncc(Br)c3n2)CC1 [Example 133, 8-bromo-N-[(4,5-difluoro-1H-benzimidazol-2-yl)methyl]-2-(4-methylpiperazin-1-yl)pyrazolo[1,5-a][1,3,5]triazin-4-amine]
IC50 (CDK12/CycK): 7.01 µM
IC50 (CDK9/CycT1): > 20 µM

FC(F)(F)CN1CCN(c2nc(NCc3nc4ccccc4[nH]3)n3ncc(Br)c3n2)CC1 [Example 139, N-[(1H-benzimidazol-2-yl)methyl]-8-bromo-2-[4-(2,2,2-trifluoroethyl)piperazin-1-yl]pyrazolo[1,5-a][1,3,5]triazin-4-amine]
IC50 (CDK12/CycK): 15.3 µM
IC50 (CDK9/CycT1): > 20 µM

CN1CCN(c2nc(NCc3nc4cc(Cl)ccc4[nH]3)n3ncc(Br)c3n2)CC1 [Example 163, 8-bromo-N-[(5-chloro-1H-benzimidazol-2-yl)methyl]-2-(4-methylpiperazin-1-yl)pyrazolo[1,5-a][1,3,5]triazin-4-amine]
IC50 (CDK12/CycK): > 5.71 µM
IC50 (CDK9/CycT1): > 20 µM

Fc1ccc2[nH]c(CNc3nc(N4CCOCC4)nc4c(Br)cnn34)nc2c1 [Example 101, 8-bromo-N-[(5-fluoro-1H-benzimidazol-2-yl)methyl]-2-(morpholin-4-yl)pyrazolo[1,5-a][1,3,5]triazin-4-amine]
IC50 (CDK12/CycK): 2.25 µM
IC50 (CDK9/CycT1): > 20 µM
